Reference: patent US20080114079A1, “TRPM2-specfic inhibitors” (priority 2006, published 2008)
Entries after “also recorded” stand apart in the source; their conditions may differ.

Assays:
[1] = test system: mouse bone marrow neutrophils; experiment: Ca2+ mobilization assay in chemoattractant-stimulated bone marrow neutrophils (flow cytometry, Fluo-3/Fura-red); format: cell-based; settings: 100 μM, 15 min
Description: (§1) Ca^2+ mobilization assays. Bone marrow neutrophils (1×10^7/ml) and DCs (1×10^6/ml) were loaded with a mixture of Fluo-3 AM and Fura-Red AM as previously described (Partida-Sanchez, S. et al., 2001 Nature Medicine 7:1209-1216; Partida-Sanchez S. et al., 2004 Immunity 20:279-291). […] The accumulation of intracellular free Ca^2+ was assessed by flow cytometry by measuring the fluorescence emission of Fluo-3 in the FL-1 channel and Fura-Red in the FL-3 channel over time. Data were analyzed using FlowJo 4.0 software (Tree Star). Relative intracellular free Ca^2+ levels are expressed as the ratio between Fluo-3 and Fura-Red mean fluorescence intensity.

[2] = test system: mouse DCs; experiment: Ca2+ mobilization assay in chemokine-stimulated DCs; format: cell-based; settings: 100 μM, 15 min, CXCL12 50 ng/ml
Description: as §1

[3] = test system: mouse bone marrow neutrophils; experiment: Transwell chemotaxis assay, mouse bone marrow neutrophils; format: cell-based
Description: (§2) Chemotaxis assays. Chemotaxis assays were performed as previously described (Partida-Sanchez, S. et al., 2001 Nature Medicine 7:1209-1216; Partida-Sanchez S. et al., 2004 Immunity 20:279-291). […] Treated cells (1×10^6 neutrophils or 1×10^5 DCs) were added to the upper chamber of the transwell (3-μm for neutrophils or 5-μm for DCs) (Costar). After incubating the chambers for 45 min (neutrophils) or 90 min (DCs) at 37° C., the transmigrated cells were collected from the lower chamber, fixed, and counted on a flow cytometer. The results are expressed as the mean ±SD of the chemotaxis index (CI) for triplicate wells. The CI represents the fold-change in the number of untreated or inhibitor-pretreated cells that migrated in response to the chemoattractant divided by the basal migration of untreated or antagonist pretreated cells migrating in response to control medium.

[4] = test system: bone marrow-derived immature or TNFα-matured DCs; experiment: Transwell chemotaxis assay, bone marrow-derived DCs; format: cell-based, mouse; settings: 100 μM, 15 min pretreatment
Description: as §2

[5] = test system: human neutrophils; experiment: Transwell chemotaxis assay, human peripheral blood neutrophils; format: cell-based; settings: 100 μM, 15 min, A5 peptide 1 μM
Description: as §2

[6] = HPLC analysis of catabolites after incubation with bone marrow neutrophils; format: in vitro ADME, mouse
Description: HPLC analysis of catabolites produced by CD38-expressing cells. […] The supernatants were collected after centrifugation, concentrated and flash frozen. Aliquots were analyzed by reversed-phase HPLC (Kontron Instruments) using a Multohyp BDS C18 column (250 mm×4.6 mm, particle size 5 μm, Chromatographie Service). Absorbance was measured at 270 nm using a UV detector (Kontron 432) and data were processed by the MT2 data acquisition system from Kontron Instruments. Peaks were identified by comparison to known standards and the area under each curve was quantified to determine relative amounts of each metabolite.

[7] = test system: mouse bone marrow neutrophils; experiment: Oxidant (H2O2)-induced Ca2+ influx in bone marrow neutrophils; format: cell-based; settings: 100 μM, 15 min, H2O2 100 μM
Description: as §1

[8] = target: T1, TRPM2 channels (Homo sapiens, UniProt O94759); experiment: Whole-cell patch-clamp of ADPR-gated cation entry in TRPM2-expressing Jurkat T cells; format: cell-based; settings: 300 μM ADPR in the pipette, -60 mV
T1 construct: All experiments were performed at room temperature with Jurkat T lymphocytes attached to high molecular weight poly-L-lysin; endogenous in cells; host or cells: Jurkat T lymphocytes
T1 sequence (O94759 whole entry): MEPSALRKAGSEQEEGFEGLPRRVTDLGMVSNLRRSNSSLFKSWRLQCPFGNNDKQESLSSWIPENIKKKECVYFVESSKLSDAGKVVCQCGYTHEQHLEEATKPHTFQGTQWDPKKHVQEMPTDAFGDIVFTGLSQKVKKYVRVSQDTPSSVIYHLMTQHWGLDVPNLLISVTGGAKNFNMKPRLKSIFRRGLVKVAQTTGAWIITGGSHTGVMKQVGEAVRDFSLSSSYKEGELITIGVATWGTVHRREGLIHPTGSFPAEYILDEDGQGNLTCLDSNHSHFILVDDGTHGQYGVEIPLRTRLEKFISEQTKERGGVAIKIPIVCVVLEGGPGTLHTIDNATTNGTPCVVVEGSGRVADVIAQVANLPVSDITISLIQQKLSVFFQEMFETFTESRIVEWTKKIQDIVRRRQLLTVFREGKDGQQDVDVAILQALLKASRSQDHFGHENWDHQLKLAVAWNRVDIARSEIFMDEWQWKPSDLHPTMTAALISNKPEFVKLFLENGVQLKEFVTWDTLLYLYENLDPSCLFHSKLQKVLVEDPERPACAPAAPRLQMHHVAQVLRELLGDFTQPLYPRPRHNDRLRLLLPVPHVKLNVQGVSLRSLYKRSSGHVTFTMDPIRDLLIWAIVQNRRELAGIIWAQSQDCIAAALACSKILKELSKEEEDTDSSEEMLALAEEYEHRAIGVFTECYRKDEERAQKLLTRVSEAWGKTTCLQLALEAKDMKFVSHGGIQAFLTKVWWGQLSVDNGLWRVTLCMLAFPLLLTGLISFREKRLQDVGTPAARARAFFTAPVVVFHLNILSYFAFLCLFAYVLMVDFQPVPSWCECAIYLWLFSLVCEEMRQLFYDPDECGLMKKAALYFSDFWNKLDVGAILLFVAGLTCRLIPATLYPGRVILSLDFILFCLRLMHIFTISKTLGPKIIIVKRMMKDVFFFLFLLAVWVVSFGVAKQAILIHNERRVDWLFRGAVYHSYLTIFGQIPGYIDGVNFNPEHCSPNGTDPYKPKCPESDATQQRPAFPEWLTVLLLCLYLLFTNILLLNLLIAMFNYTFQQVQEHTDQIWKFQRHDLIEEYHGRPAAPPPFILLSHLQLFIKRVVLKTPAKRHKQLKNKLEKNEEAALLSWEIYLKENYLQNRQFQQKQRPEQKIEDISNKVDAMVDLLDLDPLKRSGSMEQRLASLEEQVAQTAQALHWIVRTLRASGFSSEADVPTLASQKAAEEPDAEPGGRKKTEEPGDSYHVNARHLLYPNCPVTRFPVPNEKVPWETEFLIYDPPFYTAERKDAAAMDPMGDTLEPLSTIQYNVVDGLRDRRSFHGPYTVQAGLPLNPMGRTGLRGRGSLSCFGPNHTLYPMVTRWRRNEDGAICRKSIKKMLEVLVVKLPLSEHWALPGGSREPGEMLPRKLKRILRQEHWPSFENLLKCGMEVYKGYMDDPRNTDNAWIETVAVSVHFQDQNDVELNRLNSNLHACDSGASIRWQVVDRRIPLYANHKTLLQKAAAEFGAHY
Description: Electrophysiology. […] An EPC9 patch-clamp amplifier was used in conjunction with the PULSE stimulation and data acquisition software (HEKA Elektronik). The patch electrodes were made from 1.5 mm diameter borosilicate glass capillaries and filled with intracellular solution. Data were low-pass filtered at 1 kHz and compensated for both fast and slow capacity transients. Series resistance was compensated by 50-90%. All experiments were performed at room temperature with Jurkat T lymphocytes attached to high molecular weight poly-L-lysin. The pipette solution contained 145 mM K-glutamate, 8 mM NaCl, 1 mM MgCl2 and 10 mM EGTA, adjusted to pH 7.2 with KOH and to a free Ca^2+ concentration of 100 nM with CaCl2. […] The external solution contained 145 mM NaCl, 2 mM MgCl2, 1 mM CaCl2, 2.8 mM KCl, 10 mM HEPES and 10 mM glucose, adjusted to pH 7.2 with NaOH. The cells were held at −60 mV and I-V relations were obtained every 20 sec using 250 ms voltage ramps from −100 to +100 mV.

[9] = fMLP 1 μM, Ca2+-containing media
[10] = 100 μM, 15 min, fMLP 1 μM, 45 min

8Br-cADPR
effect on intracellular Ca2+ release after IL-8 ([1]; IL-8 100 nM, Ca2+ free buffer (EGTA 2 mM)): had no effect | effect on IL-8 induced Ca2+ response ([1]; IL-8 100 nM, Ca2+-containing media): neither compound had any effect | decrease of intracellular Ca2+ release in fMLP-stimulated neutrophils ([1]; fMLP 1 μM, Ca2+ free buffer (EGTA 2 mM)): approximately 25% | effect on extracellular Ca2+ influx in fMLP-stimulated WT neutrophils [1, 9]: significantly decreased | effect on Ca2+ response of CXCL12-stimulated immature DCs [2]: blocked | IC50 ([3]; 0-100 μM, 15 min, fMLP 1 μM, read-out: IC50 on chemotaxis of fMLP-stimulated mouse neutrophils): 1000 to 5000 nM | effect on chemotactic response of WT neutrophils to fMLP [3, 10]: effectively blocked chemotaxis; also recorded: significantly inhibited | effect on chemotactic response of neutrophils to IL-8 ([3]; 100 μM, IL-8 100 nM, 45 min): neither 8Br-ADPR nor 8Br-cADPR blocked | effect on chemotactic response of CD38KO (Cd38-/-) neutrophils to fMLP ([3]; 15 min, fMLP 1 μM): no further inhibition | chemotactic response of TNFα-matured DCs to CCL21 [4]: neither the immature nor mature DCs migrated efficiently | chemotactic response of immature DCs to CXCL12 [4]: neither the immature nor mature DCs migrated efficiently | effect on migration of human neutrophils to FPRL1 ligand A5 peptide [5]: effectively inhibited | catabolism on incubation with CD38KO (Cd38-/-) neutrophils [6]: remained largely unchanged | stability in the absence of any cells [6]: remained intact

Nc1ncnc2c1nc(Br)n2[C@@H]1O[C@H](COP(=O)(O)O)[C@@H](O)[C@H]1O [8Br-AMP]
effect on extracellular Ca2+ influx in fMLP-stimulated WT neutrophils [1, 9]: had absolutely no effect; also recorded: does not block

NC(=O)c1ccc[n+]([C@@H]2O[C@H](COP(=O)([O-])OP(=O)(O)OC[C@H]3O[C@@H](n4c(Br)nc5c(N)ncnc54)[C@H](O)[C@@H]3O)[C@@H](O)[C@H]2O)c1 [8Br-NAD^+]
effect on extracellular Ca2+ influx in fMLP-stimulated WT neutrophils [1, 9]: significantly reduced | effect on Ca2+ influx in fMLP-stimulated Parp1-/- neutrophils ([1]; fMLP 1 μM, Parp1-/-): significantly reduced | effect on H2O2-induced Ca2+ influx in WT neutrophils [7]: had no effect | effect on chemotactic response of WT neutrophils to fMLP [3, 10]: significantly inhibited | effect on chemotactic response of Parp1-/- neutrophils to fMLP ([3]; 100 μM, 15 min, fMLP 1 μM, Parp1-/-): inhibited | effect on chemotactic response of CD38KO (Cd38-/-) neutrophils to fMLP ([3]; 15 min, fMLP 1 μM): no further inhibition | stability in the absence of any cells [6]: remained intact

adenosine diphosphate ribose [ADPR]
membrane current on infusion into Jurkat cells [8]: caused a slowly developing inward current
